Measurements published in patent US20220313658A1, “YAP Inhibition for Wound Healing” (The Board of Trustees of the Leland Stanford Junior …, priority 2019, published 2022).

Tests used:
ENFs = ENFs cultured on stiff tissue culture plastic (TCPS) with ROCK inhibitor: En-1 activation; type: cell-based, mouse; settings: bulk ENFs on stiff TCPS with ROCK inhibitor, 14 days in culture
Source text: (§1) Mice were euthanized by CO2 narcosis and cervical dislocation, the dorsal fur was clipped, a depilatory cream was applied topically to the dorsum for 30 seconds. Next, the dorsal skin was harvested using dissecting scissors by separation along fascial planes, the subcutaneous fat was trimmed with a scalpel, and the skin was rinsed in betadine, followed by 5 rinses in cold PBS. To achieve a cell suspension, the harvested skin was finely minced using sharp scissors, enzymatically digested (Liberase DL, 0.5 mg/mL, 1 hour), and filtered through a 40 μm nylon mesh. ENFs and EPFs were isolated from En-1^Cre;R26^mTmG mice (En-1 lineage-negative cells, mTomato^+; En-1 lineage-positive cells, GFP^+) via a previously reported FACS strategy. Briefly, a lineage gate (Lin) for hematopoietic (CD45, Ter-119), endothelial (CD31, Tie2), and epithelial (CD326, CD324) cell markers was used as a negative gate to isolate fibroblasts (Lin^−), which were sorted into ENFs (Tornato^+GFP^−Lin^−) and EPFs (Tomato^−GFP+ Lin^−). To isolate ENF subpopulations, dorsal skin cells were harvested from P1 En-1^Cre,Ai6 mice (En-1 lineage-negative cells, no fluorescence; En-1 lineage-positive cells, GFP^+) via mechanical and enzymatic digestion as described above. […]

[1] = test system: reticular dermal (Dlk1^+) ENFs; test: Fractionated ENF subpopulations cultured on TCPS with or without ROCK inhibitor; type: cell-based, mouse; settings: 14 days, ROCK inhibitor added
Source text: as §1

C[C@@H](N)[C@H]1CC[C@H](C(=O)Nc2ccncc2)CC1 [Y-27632]
En-1 activation (conversion of ENFs to GFP+ EPFs) (ENFs): lack of En-1 activation
En-1 activation in Dlk1+ ENFs [1]: blocked
